Converted amounts (≈) assume the structure as drawn. Read-outs that look alike come from different tables or passages of the source.
Assays:
[1] = target: T1, Mammalian Na^+,K^+-ATPase (Sus scrofa, UniProt P05024); assay: Colorimetric ATPase assay, pig kidney membranes; format: biochemical; details: for IC50: pH 7, n = 3, read-out: ATP hydrolysis IC50 Mammalian Na^+,K^+-ATPase; for selectivity among the four ATPases: lower IC50 value on Na^+,K^+-ATPase
T1 construct: from tissue; host or cells: pig kidney plasma membranes (gift, Aarhus University; prepared per Klodos et al., 2002)
Description: (§1) To investigate the H^+-ATPase inhibitory effect of the compounds we isolated plasma membranes containing H^+-ATPase from S. cerevisiae and C. albicans cells.[15] Plasma membranes isolated from pig kidney as well as endoplasmic reticulum membranes from rabbit hind leg muscle were used to counter-screen compounds for activity against mammalian Na^+,K^+-ATPase and Ca^2+-ATPase, respectively. Prior to their use, fungal plasma membrane batches were validated by determining the maximum ATP hydrolysis activity, the pH optimum of the ATPase activity, and the sensitivity to inhibition by orthovanadate. ATPase activity was determined by a colorimetric assay that measures the amount of inorganic phosphate liberated over time, as described in Kjellerup et al., 2017.[15] Table 2, Table 3, Table 4 list the IC50 values obtained by measuring the concentration dependence of the ATPase activity for the fifteen carbazole compounds with each of the four membrane preparations.
(§2) Pma1-containing plasma membranes were prepared from S. cerevisiae RS72 yeast cells that had been transformed with the full-length cDNA of the S. cerevisiae plasma membrane H^+-ATPase isoform PMA1 under control of the PMA1 promoter, using the same procedure as described in Kongstad et al., 2014^1. For the preparation of C. albicans membranes, a 100 ml overnight culture grown in YPD (10 g/L yeast extract (BD, Sparks, MD), 20 g/L Bacto peptone (BD), 20 g/L D-(+)-glucose) was transferred to 1 L YPD and grown for a further 7 h at RT with agitation (150 rpm), followed by cell harvesting and subsequent membrane preparation using the same procedure as described in Kongstad et al., 2014^1. […] Rabbit sarcoplasmic reticulum membranes containing Sarco/Endoplasmic Reticulum Ca^2+ ATPase (SERCA) were kindly provided by Dr. Claus E. Olesen and Dr. Jesper V. Møller, Aarhus University and prepared as described in Andersen et al., 1985^2. Pig kidney Na^+,K^+-ATPase was kindly provided by Dr. Natalya Fedosova, Aarhus University and prepared as described in Klodos et al., 2002^3.
(§3) The compound libraries were purchased from Enamine Ltd, Ukraine and Chembridge Corp, USA. ATPase activity was determined by measuring the amount of liberated phosphate from ATP hydrolysis. […] Reactions were initiated by the addition of Na-ATP to a final concentration of 2.5 mM (Pma1 and Na^+,K^+-ATPase) or 5 mM (SERCA), followed by 30 minutes incubation at 30 °C. The amount of liberated phosphate was determined colorimetrically after addition of STOP solution (mixture of L-ascorbic acid, ammonium heptamolybdate tetrahydrate, and HCl to give final concentrations of 65 mM, 2.2 mM, and 189 mM, respectively) with 5 minutes incubation at room temperature (RT) followed by addition of arsenite solution (mixture of NaAsO2, sodium citrate dihydrate, and acetic acid to give final concentrations of 3.1 mM, 28 mM, and 141 mM, respectively). Absorption was measured at 860 nm after an additional 30 minutes incubation at RT.

[2] = test system: Aspergillus fumigatus ATCC 13073; assay: Mold growth inhibition; format: cell-based; details: ATCC13073; Aspergillus fumigatus ATCC 13073, n=3; read-out: Fungal Growth Inhibition MIC
Description: (§4) We subsequently assessed the carbazole series for antifungal activity, as described in Kjellerup et al., 2017.[15] Table 2, Table 3, Table 4, Table 5 list the minimum inhibitory concentrations (MIC) and the minimum fungicidal concentrations (MFC) of the fifteen compounds tested against the yeasts Saccharomyces cerevisiae, Candida albicans, C. krusei, and two isolates of C. glabrata (a wild-type strain ATCC 90030 and a clinical azole-resistant isolate Cg003 with increased efflux pump expression[19]), and the molds Aspergillus fumigatus and A. flavus. MIC was defined as the lowest concentration inhibiting visual growth of the microorganism in RPMI-1640 media. […] However, in several cases antifungal activity against molds was minimal, Table 5.
(§5) Compound hits from the library screening were evaluated against baker yeast S. cerevisiae and C. albicans (ATCC 90028). The minimum inhibitory concentration (MIC) was defined as the lowest concentration inhibiting visual growth of the microorganism and this was determined in triplicate. Standard errors were typically less than 5%. MICs for synthesized compounds were determined on the following fungal isolates: Saccharomyces cerevisiae (ATCC 9763), Candida albicans (SC5314), Candida krusei (ATCC 6258), Candida glabrata (ATCC 90030), Aspergillus flavus (ATCC MYA-1005) and Aspergillus fumigatus (ATCC 13073), which were purchased from American Type Culture Collection, and C. glabrata strain Cg003, which was kindly provided by Julius Subik, Comenius University in Bratislava, Slovak Republic. Cg003 is a clinical isolate, characterized to be resistant to fluconazole and itraconazole due to overexpression of the multidrug resistance efflux pumps Cdr1p and Cdr2p^5. The fungal growth assay was performed as described in Kjellerup et al., 2017^6.

[3] = target: T2, C. albicans H^+-ATPase (Candida albicans, UniProt P28877); assay: Colorimetric ATPase assay (ATP hydrolysis), C. albicans membranes; format: biochemical; details: pH 7, n = 3
T2 construct: endogenous in cells; host or cells: C. albicans culture grown in YPD; microsomal membrane preparation
Description: as §1, §2, §3

[4] = target: T3, Mammalian Ca^2+-ATPase (Oryctolagus cuniculus, UniProt P04191); assay: Colorimetric ATPase assay, rabbit sarcoplasmic reticulum membranes (SERCA); format: biochemical
T3 construct: from tissue; host or cells: rabbit hind leg muscle, sarcoplasmic reticulum membranes (gift, Aarhus University)
Description: as §1, §2, §3

[5] = test system: Candida glabrata ATCC 90030; assay: Fungal growth inhibition MIC (MFC); format: cell-based; details: Nakaseomyces glabratus, ATCC90030, Candida glabrata ATCC 90030 (wild-type); for MIC: RPMI-1640; for MFC: value in brackets
Description: as §4, §5

[6] = test system: Saccharomyces cerevisiae ATCC 9763; assay: Fungal growth inhibition MIC (MFC); format: cell-based; details: ATCC9763; for MIC: Saccharomyces cerevisiae ATCC 9763, RPMI-1640; for MFC: Saccharomyces cerevisiae ATCC 9763, value in brackets
Description: as §4, §5

[7] = test system: Candida krusei ATCC 6258; assay: Fungal growth inhibition MIC (MFC); format: cell-based; details: Pichia kudriavzevii, ATCC6258; for MIC: Candida krusei ATCC 6258, RPMI-1640; for MFC: Candida krusei ATCC 6258, value in brackets
Description: as §4, §5

[8] = test system: Candida glabrata Cg003; assay: Fungal growth inhibition MIC (MFC); format: cell-based; details: Nakaseomyces glabratus, Candida glabrata Cg003 (clinical azole-resistant isolate); for MIC: RPMI-1640; for MFC: value in brackets
Description: as §4, §5

[9] = test system: Candida albicans SC5314; assay: Fungal growth inhibition MIC (MFC); format: cell-based; details: for MIC: Candida albicans SC5314, RPMI-1640; for MFC: Candida albicans SC5314, value in brackets
Description: as §4, §5

[10] = target: T4, S. cerevisiae H^+-ATPase (Saccharomyces cerevisiae, UniProt P05030); assay: Colorimetric ATPase assay (ATP hydrolysis), S. cerevisiae plasma membranes; format: biochemical; details: for IC50: pH 7, n = 3
T4 construct: transformed with the full-length cDNA of the S. cerevisiae plasma membrane H^+-ATPase isoform PMA1; made in house; host or cells: S. cerevisiae RS72
Description: as §1, §2, §3

[11] = pH 7, n = 3, read-out: ATP hydrolysis IC50 Mammalian Ca^2+-ATPase

T3 sequence (P04191 1-994 isoform P04191-2): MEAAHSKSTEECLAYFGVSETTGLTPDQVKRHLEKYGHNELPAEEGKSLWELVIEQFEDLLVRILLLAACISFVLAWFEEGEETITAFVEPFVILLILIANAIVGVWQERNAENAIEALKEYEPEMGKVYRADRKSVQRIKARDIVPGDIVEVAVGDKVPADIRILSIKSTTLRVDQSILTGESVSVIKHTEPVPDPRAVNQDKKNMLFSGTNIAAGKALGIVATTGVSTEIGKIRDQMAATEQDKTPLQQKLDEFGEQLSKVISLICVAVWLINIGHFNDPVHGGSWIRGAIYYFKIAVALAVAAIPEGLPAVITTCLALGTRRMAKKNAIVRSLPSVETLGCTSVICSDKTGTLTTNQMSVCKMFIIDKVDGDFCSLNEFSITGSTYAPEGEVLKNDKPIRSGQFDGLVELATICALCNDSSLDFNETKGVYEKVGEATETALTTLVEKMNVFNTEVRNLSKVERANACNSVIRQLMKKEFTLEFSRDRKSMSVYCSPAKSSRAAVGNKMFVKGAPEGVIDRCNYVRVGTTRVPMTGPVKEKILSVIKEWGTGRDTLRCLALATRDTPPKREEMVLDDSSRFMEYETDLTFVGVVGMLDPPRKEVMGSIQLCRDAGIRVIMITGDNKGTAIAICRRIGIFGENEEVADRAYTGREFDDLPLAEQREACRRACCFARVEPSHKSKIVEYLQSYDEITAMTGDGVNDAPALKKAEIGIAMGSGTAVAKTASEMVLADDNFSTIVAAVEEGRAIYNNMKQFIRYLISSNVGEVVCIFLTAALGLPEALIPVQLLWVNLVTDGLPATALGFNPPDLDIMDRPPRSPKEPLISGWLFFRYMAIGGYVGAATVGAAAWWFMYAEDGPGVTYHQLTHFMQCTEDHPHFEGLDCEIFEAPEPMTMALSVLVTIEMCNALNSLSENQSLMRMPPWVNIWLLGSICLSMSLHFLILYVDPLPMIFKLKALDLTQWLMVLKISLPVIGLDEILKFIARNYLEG
T4 sequence (P05030 whole entry, canonical isoform): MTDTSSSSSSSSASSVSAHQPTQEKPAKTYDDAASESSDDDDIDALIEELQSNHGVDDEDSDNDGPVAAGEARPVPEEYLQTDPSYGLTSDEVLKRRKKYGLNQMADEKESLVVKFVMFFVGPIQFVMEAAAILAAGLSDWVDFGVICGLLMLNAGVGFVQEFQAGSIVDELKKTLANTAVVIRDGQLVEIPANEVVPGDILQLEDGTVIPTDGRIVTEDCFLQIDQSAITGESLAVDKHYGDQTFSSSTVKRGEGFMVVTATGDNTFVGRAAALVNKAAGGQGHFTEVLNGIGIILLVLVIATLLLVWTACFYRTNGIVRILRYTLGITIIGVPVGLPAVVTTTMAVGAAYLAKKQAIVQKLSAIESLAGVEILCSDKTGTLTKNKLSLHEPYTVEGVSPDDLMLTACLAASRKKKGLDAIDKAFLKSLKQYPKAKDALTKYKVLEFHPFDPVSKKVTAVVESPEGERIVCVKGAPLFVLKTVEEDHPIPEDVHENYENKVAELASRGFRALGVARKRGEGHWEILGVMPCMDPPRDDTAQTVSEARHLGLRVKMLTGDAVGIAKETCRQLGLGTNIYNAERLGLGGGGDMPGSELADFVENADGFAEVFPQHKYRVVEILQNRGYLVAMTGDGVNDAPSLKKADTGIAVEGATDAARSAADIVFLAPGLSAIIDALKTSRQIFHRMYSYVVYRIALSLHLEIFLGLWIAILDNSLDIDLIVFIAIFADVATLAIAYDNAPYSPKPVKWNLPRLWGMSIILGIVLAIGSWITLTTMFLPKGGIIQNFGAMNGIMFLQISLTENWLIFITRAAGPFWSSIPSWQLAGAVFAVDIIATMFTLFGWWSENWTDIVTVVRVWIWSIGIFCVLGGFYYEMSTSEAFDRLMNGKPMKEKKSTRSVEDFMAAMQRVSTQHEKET
T2 sequence (P28877 whole entry): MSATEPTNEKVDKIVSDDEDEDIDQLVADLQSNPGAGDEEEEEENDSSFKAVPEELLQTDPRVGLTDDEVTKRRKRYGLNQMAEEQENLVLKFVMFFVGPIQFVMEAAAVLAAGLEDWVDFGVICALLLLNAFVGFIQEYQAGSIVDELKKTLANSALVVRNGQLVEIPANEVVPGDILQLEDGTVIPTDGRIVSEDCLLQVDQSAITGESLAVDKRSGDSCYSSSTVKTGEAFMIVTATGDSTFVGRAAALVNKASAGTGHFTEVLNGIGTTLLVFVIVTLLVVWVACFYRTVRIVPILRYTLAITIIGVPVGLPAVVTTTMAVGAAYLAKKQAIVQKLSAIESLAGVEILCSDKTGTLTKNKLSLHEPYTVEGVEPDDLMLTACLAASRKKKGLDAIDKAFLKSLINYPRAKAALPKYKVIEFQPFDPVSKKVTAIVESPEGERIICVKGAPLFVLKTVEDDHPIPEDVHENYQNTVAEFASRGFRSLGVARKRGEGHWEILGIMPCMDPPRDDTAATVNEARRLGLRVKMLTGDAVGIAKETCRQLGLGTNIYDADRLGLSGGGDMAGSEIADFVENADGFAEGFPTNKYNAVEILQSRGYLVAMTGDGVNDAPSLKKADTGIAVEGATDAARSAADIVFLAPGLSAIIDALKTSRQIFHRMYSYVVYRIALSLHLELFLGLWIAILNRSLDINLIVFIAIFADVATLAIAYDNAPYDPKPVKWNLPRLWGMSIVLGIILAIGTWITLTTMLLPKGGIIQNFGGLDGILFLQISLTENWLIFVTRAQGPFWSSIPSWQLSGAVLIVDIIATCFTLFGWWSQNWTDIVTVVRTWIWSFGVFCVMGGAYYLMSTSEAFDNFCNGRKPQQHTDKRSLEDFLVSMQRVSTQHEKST

SMILES | IC50 [1] | MIC [2] | IC50 [3] | IC50 [4] | MIC [5] | MFC [5] | MIC [6] | MFC [6] | MIC [7] | MFC [7] | MIC [8] | MFC [8] | MIC [9] | MFC [9] | IC50 [10] | IC50 [4, 11] | selectivity among the four ATPases [1] | fold more potent H^+-ATPase inhibition than the parent compounds 1–4 ([10]; IC50 ratio)
OC(Cn1ccnc1)Cn1c2ccc(Cl)cc2c2cc(Cl)ccc21 (stereo not drawn) [Compound 5, 1-(3,6-dichloro-9H-carbazol-9-yl)-3-(1H-imidazol-1-yl)propan-2-ol] | 20.4 ± 2.3 µM | > 75 µM | 19.3 ± 2.6 µM | 10.7 ± 2.2 µM | > 75 µM | > 75 µM | 24 µM (≈ 8.65 µg/mL) | 75 µM (≈ 27 µg/mL) | > 75 µM | > 75 µM | > 75 µM | > 75 µM | 24 µM (≈ 8.65 µg/mL) | > 75 µM | 23 ± 12.3 µM | – | – | –
OC(Cn1cncn1)Cn1c2ccc(Cl)cc2c2cc(Cl)ccc21 (stereo not drawn) [Compound 6, 1-(3,6-dichloro-9H-carbazol-9-yl)-3-(1H-1,2,4-triazol-1-yl)propan-2-ol] | 5.2 ± 0.3 µM | > 75 µM | 4 ± 1.2 µM | 20.3 ± 3.6 µM | > 75 µM | > 75 µM | 75 µM (≈ 27.1 µg/mL) | > 75 µM | > 75 µM | > 75 µM | > 75 µM | > 75 µM | 75 µM (≈ 27.1 µg/mL) | > 75 µM | 7.4 ± 1.6 µM | – | – | –
OC(CN1CCOCC1)Cn1c2ccc(Cl)cc2c2cc(Cl)ccc21 (stereo not drawn) [Compound 7, 1-(3,6-dichloro-9H-carbazol-9-yl)-3-morpholinopropan-2-ol] | 6 ± 1.3 µM | > 75 µM | 2.6 ± 0.4 µM | – | > 75 µM | > 75 µM | 24 µM (≈ 9.1 µg/mL) | 24 µM (≈ 9.1 µg/mL) | > 75 µM | > 75 µM | > 75 µM | > 75 µM | 75 µM (≈ 28.4 µg/mL) | 75 µM (≈ 28.4 µg/mL) | 6.9 ± 1.3 µM | 19.6 ± 7.2 µM | – | –
CN1CCN(CC(O)Cn2c3ccc(Cl)cc3c3cc(Cl)ccc32)CC1 (stereo not drawn) [Compound 8, 1-(3,6-dichloro-9H-carbazol-9-yl)-3-(4-methylpiperazin-1-yl)propan-2-ol] | 9.7 ± 3.3 µM | 75 µM (≈ 29.4 µg/mL) | 26.4 ± 2.5 µM | 36.8 ± 12.2 µM | 42 µM (≈ 16.5 µg/mL) | 75 µM (≈ 29.4 µg/mL) | 7.5 µM (≈ 2.94 µg/mL) | 7.5 µM (≈ 2.94 µg/mL) | 75 µM (≈ 29.4 µg/mL) | > 75 µM | 58 µM (≈ 22.8 µg/mL) | 75 µM (≈ 29.4 µg/mL) | 68 µM (≈ 26.7 µg/mL) | 75 µM (≈ 29.4 µg/mL) | 52.7 ± 10.6 µM | – | – | –
O=C(O)C1CCN(CC(O)Cn2c3ccc(Cl)cc3c3cc(Cl)ccc32)CC1 (stereo not drawn) [Compound 9, 1-(3-(3,6-dichloro-9H-carbazol-9-yl)-2-hydroxypropyl)piperidine-4-carboxylic acid] | 4 ± 0.7 µM | > 75 µM | 105 ± 13.9 µM | 97.6 ± 25.7 µM | > 75 µM | > 75 µM | > 75 µM | > 75 µM | > 75 µM | > 75 µM | > 75 µM | > 75 µM | > 75 µM | > 75 µM | 107 ± 11.8 µM | – | pronounced selectivity towards Na^+,K^+-ATPase | –
CCC(C)NCC(O)Cn1c2ccc(Cl)cc2c2cc(Cl)ccc21 (stereo not drawn) [Compound 10, 1-(sec-butylamino)-3-(3,6-dichloro-9H-carbazol-9-yl)propan-2-ol] | 1 ± 0.2 µM | 3.7 µM (≈ 1.35 µg/mL) | 1.1 ± 0.2 µM | – | 1.2 µM (≈ 0.438 µg/mL) | 3.8 µM (≈ 1.39 µg/mL) | 0.4 µM (≈ 0.146 µg/mL) | 1.2 µM (≈ 0.438 µg/mL) | 2.9 µM (≈ 1.06 µg/mL) | 3.8 µM (≈ 1.39 µg/mL) | 5.6 µM (≈ 2.05 µg/mL) | 7.9 µM (≈ 2.89 µg/mL) | 3.7 µM (≈ 1.35 µg/mL) | 3.8 µM (≈ 1.39 µg/mL) | 2 ± 0.2 µM | 0.3 ± 0.1 µM | – | ca. 9 fold
COc1ccc2c(c1)c1cc(OC)ccc1n2CC(O)CN1CCN(C)CC1 (stereo not drawn) [Compound 11, 1-(3,6-dimethoxy-9H-carbazol-9-yl)-3-(4-methylpiperazin-1-yl)propan-2-ol] | > 167 µM | > 75 µM | > 167 µM | > 167 µM | > 75 µM | > 75 µM | > 75 µM | > 75 µM | > 75 µM | > 75 µM | > 75 µM | > 75 µM | > 75 µM | > 75 µM | > 167 µM | – | – | –
CN1CCN(CC(O)Cn2c3ccc(C#N)cc3c3cc(C#N)ccc32)CC1 (stereo not drawn) [Compound 12, 9-(2-hydroxy-3-(4-methylpiperazin-1-yl)propyl)-9H-carbazole-3,6-dicarbonitrile] | 10.5 ± 1.4 µM | > 75 µM | 144 ± 14.7 µM | 92.7 ± 13.1 µM | > 75 µM | > 75 µM | > 75 µM | > 75 µM | > 75 µM | > 75 µM | > 75 µM | > 75 µM | > 75 µM | > 75 µM | > 167 µM | – | pronounced selectivity towards Na^+,K^+-ATPase | –
CN1CCN(CC(O)Cn2c3ccc(O)cc3c3cc(O)ccc32)CC1 (stereo not drawn) [Compound 13, 9-(2-hydroxy-3-(4-methylpiperazin-1-yl)propyl)-9H-carbazole-3,6-diol] | > 167 µM | > 75 µM | > 167 µM | > 167 µM | > 75 µM | > 75 µM | > 75 µM | > 75 µM | > 75 µM | > 75 µM | > 75 µM | > 75 µM | > 75 µM | > 75 µM | > 167 µM | – | – | –

From paper PMC5609566, “Elucidation of antimicrobial activity and mechanism of action by N-substituted carbazole derivatives” (Bioorganic & Medicinal Chemistry Letters, 2017)
